Experimental data published in US20130040814A1, “HERBICIDAL COMPOSITION” (ISHIHARA SANGYO KAISHA, LTD., priority 2010, published 2013).
Structures can show the parent of a compound that is named as a salt.

How the values were obtained:
purple nutsedge [1] = assay: Test Example 1: pot test, foliar application of flazasulfuron and granule application of chlorthiamid, visual growth inhibition; type: in vivo, Cyperus rofundus L.; conditions: Cyperus, read-out: Growth inhibition rate (%) of purple nutsedge, Measured value
Excerpt: When the herbicidal activity in a case where two active ingredients are combined, is larger than the simple sum (the expected activity) of the respective herbicidal activities of the two active ingredients, it is called a synergistic effect. The activity expected by the combination of two active ingredients can be calculated as follows (Colby S. R., “Weed”, vol. 15, p. 20-22, 1967).
(§1) Upland field soil was put into a 1/1,000,000 ha pot, and tubers of purple nutsedge (Cyperus rofundus L.) were planted. 33 days later, when purple nutsedge reached a 6 to 7 leaf stage, a predetermined amount of water dispersible granules containing flazasulfuron as an active ingredient (tradename: SHIBAGEN DF, manufactured by Ishihara Sangyo Kaisha, Ltd.) was diluted with water (corresponding to 200 L/ha) containing 0.02 vol % of an agricultural adjuvant (tradename: Kusa-rino, manufactured by Nihon Nohyaku Co., Ltd.) and applied by foliar application by means of a small sprayer, and a predetermined amount of granules containing chlorthiamid as an active ingredient (tradename: GF Ben-pole granules, manufactured by Suimitomo Chemical Garden Products Inc.) was applied by granule application.
(§2) Measured value of growth inhibition rate(%)(evaluated value by visual observation)=0(equivalent to non-treated area) to 100(complete kill)
(§3) That is, the measured value of growth inhibition rate (%) was rated to be 0% in a case where the level of the growth inhibition of weeds was the same in the non-treated area and to be 100% in a case where the growth was completed inhibited and the weeds were killed.

green kyllinga [2] = assay: Test Example 2: pot test on green kyllinga, visual growth inhibition; type: in vivo, Kyllinga brevifolia var. leiolepis; conditions: Cyperus brevifolius, read-out: Growth inhibition rate (%) of green kyllinga, Measured value
Description: as §1, §2, §3
Upland field soil was put into a 1/1,000,000 ha pot, and rhizomes of green kyllinga (Kyllinga brevifolia var. leiolepis) were planted. 46 days later, when the height of green kyllinga reached 4 to 7 cm, a predetermined amount of SHIBAGEN DF, (tradename) and a predetermined amount of GF Ben-pole (tradename) were applied in the same manner as in Test Example 1.

purple nutsedge [3] = assay: Test Example 3: pot test, foliar application of herbicidal composition, visual growth inhibition; type: in vivo, Cyperus rofundus L; conditions: Cyperus, read-out: Growth inhibition rate (%) of purple nutsedge, Measured value
Excerpt: as §2, §3
Upland field soil was put into a 1/1,000,000 ha pot, and tubers of purple nutsedge (Cyperus rofundus L) were planted. 54 days later, when purple nutsedge reached a height of 25 to 30 cm, a predetermined amount of a herbicidal composition was diluted with water (corresponding to 200 L/ha) containing 0.02 vol % of an agricultural adjuvant (tradename: Kusa-rino, manufactured by Nihon Nohyaku Co., Ltd.) and applied by foliar application by means of a small sprayer.
On the 42nd day after application, the state of growth of the plant was visually observed, and in the same manner as in Test Example 1, the measured growth inhibition rate (%) and the calculated growth inhibition rate (%) obtained by the Colby's formula are shown in Table 3.

green kyllinga [4] = assay: Test Example 5: pot test, sodium salt of trifloxysulfuron and chlorthiamid, visual growth inhibition; type: in vivo, Kyllinga brevifolia var. leiolepis; conditions: Cyperus brevifolius, 42nd day after application, height 6 to 8 cm, read-out: Growth inhibition rate (%) of green kyllinga, Measured value
Excerpt: as §2, §3
(§4) Upland field soil was put into a 1/1,000,000 ha pot, and tubers of purple nutsedge were planted. When purple nutsedge reached a 13 leaf stage, a predetermined amount of SHIBAGEN DF (tradename) and a predetermined amount of a wettable powder containing dichlobenil as an active ingredient (tradename: Kasoron wettable powder, manufactured by AGRO-KANESHO Co., Ltd.) were diluted with water (corresponding to 2,000 L/ha) containing 0.02 vol % of Kusa-rino (tradename) and applied by foliar application by means of a small sprayer.
Upland field soil was put into a 1/1,000,000 ha pot, rhizomes of green kyllinga (Kyllinga brevifolia var. leiolepis) were planted.

green kyllinga [5] = assay: Test Example 6: pot test, sodium salt of trifloxysulfuron and chlorthiamid or dichlobenil, visual growth inhibition; type: in vivo, Kyllinga brevifolia var. leiolepis; conditions: Cyperus brevifolius, 42nd day after application, height 10 cm, read-out: Growth inhibition rate (%) of green kyllinga, Measured value; for inhibition at 5000 g/ha: dose 5,000 g/ha
Excerpt: as §2, §3, §4
Upland field soil was put into a 1/1,000,000 ha pot, rhizomes of green kyllinga (Kyllinga brevifolia var. leiolepis) were planted. When the height of green kyllinga reached 10 cm, a predetermined amount of Monument water dispersible granules (tradename) and a predetermined amount of chlorthiamid (reagent, manufactured by Wako Pure Chemical Industries, Ltd.) or Kasoron wet powder (tradename) were applied in the same manner as in Test Example 4.

purple nutsedge [6] = assay: Test Example 4: pot test, foliar application of flazasulfuron and dichlobenil wettable powder, visual growth inhibition; type: in vivo; conditions: Cyperus
Excerpt: as §2, §3, §4
On the 42nd day after application, the state of growth of purple nutsedge was visually observed, and in the same manner as in Test Example 1, the measured growth inhibition rate (%) and the calculated growth inhibition rate (%) obtained by the Colby's formula are shown in Table 4.

[7] = read-out: Growth inhibition rate (%) of purple nutsedge, Measured value

## NC(=S)c1c(Cl)cccc1Cl [Chlorthiamid, 2,6-dichlorothiobenzamide]
Purple nutsedge [1]
  inhibition at 1000 g/ha: 35%
  inhibition at 2000 g/ha: 33%
  inhibition at 4000 g/ha: 50%
  inhibition at 6000 g/ha: 69%
Green kyllinga [2]
  inhibition at 1000 g/ha: 20%
  inhibition at 5000 g/ha: 65%
Purple nutsedge [3]
  inhibition at 500 g/ha: 0%
  inhibition at 1000 g/ha: 0%
  inhibition at 2000 g/ha: 18%
  inhibition at 4000 g/ha: 33%
Green kyllinga [4]; dose 1,000 g/ha
  inhibition at 1000 g/ha: 18%
Green kyllinga [4]; dose 10,000 g/ha
  inhibition at 10000 g/ha: 30%
Green kyllinga [5]
  inhibition at 5000 g/ha: 58%

## N#Cc1c(Cl)cccc1Cl [Dichlobenil, 2,6-dichlorobenzonitrile]
Purple nutsedge [3]
  inhibition at 500 g/ha: 10%
  inhibition at 1000 g/ha: 23%
  inhibition at 2000 g/ha: 10%
  inhibition at 4000 g/ha: 33%
Purple nutsedge [6]; [7]
  inhibition at 500 g/ha: 10%
  inhibition at 4000 g/ha: 33%
Green kyllinga [5]
  inhibition at 5000 g/ha: 58%

## COc1cc(OC)nc(NC(=O)NS(=O)(=O)c2ncccc2C(F)(F)F)n1 [Flazasulfuron, 1-(4,6-dimethoxypyrimidin-2-yl)-3-(3-trifluoromethyl-2-pyridylsulfonyl)urea]
Purple nutsedge [1]; dose 25 g/ha, 36th day after application, 6 to 7 leaf stage
  inhibition at 25 g/ha: 18%
Purple nutsedge [1]; dose 50 g/ha, 36th day after application, 6 to 7 leaf stage
  inhibition at 50 g/ha: 73%
Green kyllinga [2]; dose 50 g/ha, 54th day after application, height 4 to 7 cm
  inhibition at 50 g/ha: 80%
Purple nutsedge [3]; dose 25 g/ha, 42nd day after application, height 25 to 30 cm
  inhibition at 25 g/ha: 87%
Purple nutsedge [3]; dose 50 g/ha, 42nd day after application, height 25 to 30 cm
  inhibition at 50 g/ha: 98%
Purple nutsedge [6]; dose 25 g/ha, 42nd day after application, 13 leaf stage, read-out: Growth inhibition rate (%) of Purple nutsedge, Measured value
  inhibition at 25 g/ha: 87%

## COc1cc(OC)nc(NC(=O)NS(=O)(=O)c2ncccc2OCC(F)(F)F)n1 [Sodium salt of trifloxysulfuron, 1-(4,6-dimethoxypyrimidin-2-yl)-3-[3-(2,2,2-trifluoroethoxy)-2-pyridylsulfonyl]urea]
Green kyllinga [4]; dose 10 g/ha
  inhibition at 10 g/ha: 0%
Green kyllinga [4]; dose 200 g/ha
  inhibition at 200 g/ha: 25%
Green kyllinga [5]; dose 45 g/ha
  inhibition at 45 g/ha: 0%
